We go through four molecules from article PMC9832505, “Cell Adhesion Motif-Functionalized Lipopeptides: Nanostructure and Selective Myoblast Cytocompatibility” (Biomacromolecules, 2022).

One data set has as its system L929 murine fibroblast. Briefly: MTT cytotoxicity assay on L929 fibroblasts. It is filed as cell-based, mouse. The settings on record: for cell viability: 0.1 wt %; for cell survival: 1 wt %. The protocol: (§1) L929 murine fibroblast and C2C12 immortalized mouse myoblast cell lines (both from ECACC General Cell Collection) were grown in Dulbecco’s modified Eagle’s medium (DMEM) supplemented with 10% fetal bovine serum, 20 mM HEPES, and 1% GlutaMAX. The cells were maintained at pH 7.4, 37 °C, and 5% CO2 in 25 cm^2 cell culture flasks.
(§2) Cells were seeded in 96-well plates at a density of 0.6 × 10^4 cells per well. Cells were then treated with peptides dissolved in the medium at the concentrations of 0.1 and 1 × 10^–4 wt %. To test cytocompatibility in the presence of the hydrogels, wells were filled with 1 wt % mG and pG hydrogels before seeding. At the end of the treatment (after 24 or 72 h), cell viability was assessed using an MTT [3-(4, 5-dimethylthiazolyl-2)-2, 5-diphenyltetrazolium bromide] assay. In brief, after the removal of the culture medium, MTT, dissolved in DMEM at a concentration of 0.5 mg/mL, was added to the cells and incubated for 4 h at 37 °C. The resulting formazan crystals were dissolved by adding dimethyl sulfoxide. Absorbance values of blue formazan were determined at 560 nm using an automatic plate reader. Cell survival was expressed as a percentage of viable cells in the presence of peptides, compared to control cells grown in their absence. The assay was repeated three times, and the results were averaged. Statistical significance was tested using multiple Welch’s t-tests. All analyses were conducted using Prism 7.
Background: Formazan colour is commonly taken as a measure of viable cells.

Data set [1] has as its system C2C12 immortalized mouse myoblast. The data set is described as follows: MTT cytotoxicity assay on C2C12 myoblasts. It counts as cell-based. To be noted: for cell viability: 72 h, 0.1 wt %; for tolerance of hydrogels in words: C2C12 on hydrogels (1 wt %), 24 h and 72 h, MTT. Here is the method: as §1, §2
Assay in data set [2]: not given
The source holds these as a separate data set.

Assay in data set [3]: not given
This is another data set of the same source.

Residues, ends and D or L forms follow the SMILES beside them.

The molecule `CCCCCCCCCCCCCC(=O)N[C@@H](Cc1c[nH]c2ccccc12)C(=O)NCC(=O)NCC(=O)N[C@@H](CCCNC(=N)N)C(=O)NCC(=O)N[C@@H](CC(=O)O)C(=O)N[C@@H](CO)C(=O)O` [mW, C14-WGGRGDS] (HELM PEPTIDE1{[CCCCCCCCCCCCCC(=O)[*:2]].W.G.G.R.G.D.S}$$$$V2.0) yielded a nanotube radius of 750 Å. The molecule also had a cell viability with L929 murine fibroblast (72 h) of 28.1 ± 3.1%. The same molecule showed a cell viability in data set [1] of 72.3 ± 10.2%.

Consider `CCCCCCCCCCCCCC(=O)NCC(=O)NCC(=O)NCC(=O)N[C@@H](CCCNC(=N)N)C(=O)NCC(=O)N[C@@H](CC(=O)O)C(=O)N[C@@H](CO)C(=O)O` [mG, C14-GGGRGDS] (HELM PEPTIDE1{[CCCCCCCCCCCCCC(=O)[*:2]].G.G.G.R.G.D.S}$$$$V2.0), for which the cell survival was determined as 92.6 ± 8.8% with L929 murine fibroblast (24 h) and 94.6 ± 12.6% in the data set on L929 murine fibroblast (72 h). The results for the cell viability (in the data set on L929 murine fibroblast (72 h); in data set [1]) were 30.7 ± 4.7% and 84.4 ± 9.6%, respectively. Besides, in data set [1], the “tolerance of hydrogels in words” value was “reasonably well tolerated”. The molecule further gave a nanotape mean thickness in hydrogel in data set [2] of 13.6 nm.

In turn, `CCCCCCCCCCCCCCCC(=O)N[C@@H](Cc1c[nH]c2ccccc12)C(=O)NCC(=O)NCC(=O)N[C@@H](CCCNC(=N)N)C(=O)NCC(=O)N[C@@H](CC(=O)O)C(=O)N[C@@H](CO)C(=O)O` [pW, C16-WGGRGDS] (HELM PEPTIDE1{[CCCCCCCCCCCCCCCC(=O)[*:2]].W.G.G.R.G.D.S}$$$$V2.0) registered a fiber mean diameter in data set [3] of 4 nm. Besides, the cell viability in the data set with L929 murine fibroblast (72 h) amounted to 36.3 ± 5.1%; in data set [1], 73.3 ± 2.8%.

For the molecule `CCCCCCCCCCCCCCCC(=O)NCC(=O)NCC(=O)NCC(=O)N[C@@H](CCCNC(=N)N)C(=O)NCC(=O)N[C@@H](CC(=O)O)C(=O)N[C@@H](CO)C(=O)O` [pG, C16-GGGRGDS] (HELM PEPTIDE1{[CCCCCCCCCCCCCCCC(=O)[*:2]].G.G.G.R.G.D.S}$$$$V2.0), the cell viability in the data set with L929 murine fibroblast (72 h) was 31.8 ± 5.1%. In addition, in data set [1], the cell viability is given as 86.0 ± 6.8% and the “tolerance of hydrogels in words” value was “reasonably well tolerated”.

One may read the cell viability as the share of living cells, or the viability signal relative to a control. Higher therefore signals better survival.
